The values below come from patent US10149840B2, “OCT3 activity inhibitor containing imidazopyridine derivative as active component, and OCT3 detection agent” (SHIN NIPPON BIOMEDICAL LABORATORIES, LTD., priority 2012, dated 2018).

The nature of data set [1]: measured Brain/Blood verification experiment in BALB/c mice. The format is in vivo. The following applies: mouse, 5 mg/kg, five minutes after administration, brain homogenate vs plasma. Here is the method:
The Brain/Blood value predicted with the above method was verified with an experiment using BALB/c mice. As test substances in the verification experiment, two compounds of SR-4277 and Famotidine were used. […] The test substance was administered in 5 mg/kg to the mice. The mice were anesthetized in advance with isoflurane, and exsanguination was performed from the vena cava of the mice five minutes after the administration. Brains were removed, and weights thereof were measured. After that, a brain homogenate was prepared. The collected blood was subjected to centrifugation, and plasma was thereby prepared. Concentrations of the test substance in plasma and the brain homogenate were measured with HPLC and MS.

The next data set has as its target OCT3 (Homo sapiens (Human), UniProt O75751). The following applies: Non Patent Literature 1; read-out: IC50 (reported); cited from earlier work.
The next data set relates to ddY male mice. Briefly: forced swimming test. It is filed as in vivo. The following applies: low dose administered alone (imipramine 4 mg/kg or OCT3 inhibitor 0.25 μl/hr).

Some results are limits rather than exact numbers.

Sequence of OCT3 (O75751 whole entry): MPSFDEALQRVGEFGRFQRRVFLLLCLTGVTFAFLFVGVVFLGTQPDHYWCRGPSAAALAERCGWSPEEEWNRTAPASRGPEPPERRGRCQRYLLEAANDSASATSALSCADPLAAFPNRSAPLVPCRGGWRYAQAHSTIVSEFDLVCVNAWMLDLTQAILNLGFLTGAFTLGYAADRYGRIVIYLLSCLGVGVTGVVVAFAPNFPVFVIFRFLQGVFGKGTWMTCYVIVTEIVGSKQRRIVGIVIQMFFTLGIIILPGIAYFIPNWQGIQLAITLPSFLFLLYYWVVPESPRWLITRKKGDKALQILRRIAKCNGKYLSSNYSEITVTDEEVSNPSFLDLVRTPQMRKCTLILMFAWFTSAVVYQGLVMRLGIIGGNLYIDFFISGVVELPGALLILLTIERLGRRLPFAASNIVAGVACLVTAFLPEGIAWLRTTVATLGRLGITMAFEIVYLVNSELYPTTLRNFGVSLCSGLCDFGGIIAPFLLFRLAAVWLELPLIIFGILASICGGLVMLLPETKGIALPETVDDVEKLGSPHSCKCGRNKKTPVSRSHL
Experimental for ddY male mice: In this forced swimming test, mice or rats as test animals are forced to swim in water tanks from which the mice or rats cannot escape. Then, an immobility behavior of the test animals after an escape behavior thereof (a state in which only the head is above the water surface and the test animals are floating without moving the hands or feet) is observed. When the test animals are put into the water tanks again 24 hours or more later, the immobility behavior is expressed earlier than in the first experiment. Duration of this immobility behavior for a certain time (usually about 5 minutes) is relatively accurately reproduced.
Specifically, a test is performed as follows.
In an experiment, ddY male mice each weighing 28 to 33 g (Japan SLC, Inc.) are used. […] After being acquired, these mice are bred in a room in which temperature (22 to 24° C.), humidity (50 to 60%), and lighting (lighting 8:00 to 20:00) are controlled for three or more days. In the first forced swimming test, all the experimental mice are forced to swim in glass cylinders (diameter 15.5 cm, depth 17 cm, water depth 12 cm, water temperature 25° C.) for 300 seconds to measure immobility time. The mice are distributed into experimental groups (an OCT3 inhibitor-administrated group, a positive control group, and a negative control group) such that an average value of the immobility time is almost the same. […]

Consider `NC(N)=Nc1nc(CSCCC(N)=NS(N)(=O)=O)cs1` [Famotidine], for which the Kp (in general, tissue or fluid exposure divided by exposure in the circulation) at 5 min in data set [1] is 0.1. Besides, at OCT3, the IC50 (commonly the concentration that gives 50% inhibition) is 20 µM.

With `CN/C(=N/CCSCc1nc[nH]c1C)NC#N` [cimetidine], the IC50 on OCT3 is 240 µM.

For `CN(C)CCCN1c2ccccc2CCc2ccccc21` [imipramine], the “average value of the immobility time” value in the data set on ddY male mice is on record as “about 200 seconds”.

`CN1C2CCCC1CC(NC(=O)c1nn(C)c3ccccc13)C2` (stereo not drawn) [granisetron]: the IC50 at OCT3 was at most 100 µM.

For the compound `Cn1cc(C(=O)[C@@H]2CCc3nc[nH]c3C2)c2ccccc21` [ramosetron], the half-inhibitory concentration (IC50) on OCT3 was at most 100 µM.
